ChEMBL document CHEMBL4819100, “Antibacterial and synergistic activity of 6β-hydroxy-3-oxolup-20(29)-en-28-oic acid (6β-hydroxy betunolic acid) isolated from Schumacheria castaneifolia vahl” (2021)
Converted amounts (≈) assume the structure as drawn.

How the values were obtained:
Assay type in all cases: functional
Staphylococcus aureus [1] = assay: Antibacterial activity against methicillin-resistant Staphylococcus aureus 59 assessed as fractional inhibitory concentration index incubated for 24 hrs in presence of oxacillin by CLSI based serial dilution method
Staphylococcus aureus [2] = assay: Antibacterial activity against methicillin-resistant Staphylococcus aureus 58 assessed as reduction in bacterial growth incubated for 24 hrs by CLSI based serial dilution method
Staphylococcus aureus [3] = assay: Antibacterial activity against Staphylococcus aureus assessed as fractional inhibitory concentration index incubated for 24 hrs in presence of oxacillin by CLSI based serial dilution method
Staphylococcus aureus [4] = assay: Antibacterial activity against methicillin-resistant Staphylococcus aureus 114 assessed as reduction in bacterial growth incubated for 24 hrs by CLSI based serial dilution method
Staphylococcus aureus [5] = assay: Antibacterial activity against methicillin-resistant Staphylococcus aureus 124 assessed as reduction in bacterial growth incubated for 24 hrs by CLSI based serial dilution method
Acinetobacter [6] = assay: Antibacterial activity against Acinetobacter sp. 122 assessed as reduction in bacterial growth incubated for 24 hrs by CLSI based serial dilution method
Klebsiella pneumoniae [7] = assay: Antibacterial activity against Klebsiella pneumoniae ATCC BAA-1705 assessed as reduction in bacterial growth incubated for 24 hrs by CLSI based serial dilution method
Staphylococcus aureus [8] = assay: Antibacterial activity against methicillin-resistant Staphylococcus aureus 114 assessed as fractional inhibitory concentration index incubated for 24 hrs in presence of oxacillin by CLSI based serial dilution method
Staphylococcus aureus [9] = assay: Antibacterial activity against methicillin-resistant Staphylococcus aureus 59 assessed as reduction in bacterial growth incubated for 24 hrs by CLSI based serial dilution method
Staphylococcus aureus [10] = assay: Antibacterial activity against Staphylococcus aureus assessed as fractional inhibitory concentration incubated for 24 hrs in presence of oxacillin by CLSI based serial dilution method
Staphylococcus aureus [11] = assay: Antibacterial activity against methicillin-resistant Staphylococcus aureus 59 assessed as fractional inhibitory concentration incubated for 24 hrs in presence of oxacillin by CLSI based serial dilution method
Staphylococcus aureus [12] = assay: Antibacterial activity against methicillin-resistant Staphylococcus aureus 59 assessed as reduction in bacterial growth incubated for 24 hrs in presence of oxacillin by CLSI based serial dilution method
Staphylococcus aureus [13] = assay: Antibacterial activity against methicillin-resistant Staphylococcus aureus 124 assessed as fractional inhibitory concentration incubated for 24 hrs in presence of oxacillin by CLSI based serial dilution method
Staphylococcus aureus [14] = assay: Antibacterial activity against Staphylococcus aureus assessed as reduction in bacterial growth incubated for 24 hrs in presence of oxacillin by CLSI based serial dilution method
Staphylococcus aureus [15] = assay: Antibacterial activity against methicillin-resistant Staphylococcus aureus 114 assessed as fractional inhibitory concentration incubated for 24 hrs in presence of oxacillin by CLSI based serial dilution method
Klebsiella pneumoniae [16] = assay: Antibacterial activity against Klebsiella pneumoniae ATCC BAA-1706 assessed as reduction in bacterial growth incubated for 24 hrs by CLSI based serial dilution method
Acinetobacter [17] = assay: Antibacterial activity against Acinetobacter sp. 126 assessed as reduction in bacterial growth incubated for 24 hrs by CLSI based serial dilution method
Staphylococcus aureus [18] = assay: Antibacterial activity against methicillin-resistant Staphylococcus aureus 124 assessed as fractional inhibitory concentration index incubated for 24 hrs in presence of oxacillin by CLSI based serial dilution method
Escherichia coli [19] = assay: Antibacterial activity against Escherichia coli ATCC 25922 assessed as reduction in bacterial growth incubated for 24 hrs by CLSI based serial dilution method
Staphylococcus aureus [20] = assay: Antibacterial activity against methicillin-resistant Staphylococcus aureus 58 assessed as reduction in bacterial growth incubated for 24 hrs in presence of oxacillin by CLSI based serial dilution method
Staphylococcus aureus [21] = assay: Antibacterial activity against methicillin-resistant Staphylococcus aureus 114 assessed as reduction in bacterial growth incubated for 24 hrs in presence of oxacillin by CLSI based serial dilution method
Enterococcus faecalis = assay: Antibacterial activity against Enterococcus faecalis ATCC 29212 assessed as reduction in bacterial growth incubated for 24 hrs by CLSI based serial dilution method
Acinetobacter [22] = assay: Antibacterial activity against Acinetobacter sp. 121 assessed as reduction in bacterial growth incubated for 24 hrs by CLSI based serial dilution method
Staphylococcus aureus [23] = assay: Antibacterial activity against methicillin-resistant Staphylococcus aureus 58 assessed as fractional inhibitory concentration incubated for 24 hrs in presence of oxacillin by CLSI based serial dilution method
Staphylococcus aureus [24] = assay: Antibacterial activity against Staphylococcus aureus ATCC 29213 assessed as reduction in bacterial growth incubated for 24 hrs by CLSI based serial dilution method
Staphylococcus aureus [25] = assay: Antibacterial activity against methicillin-resistant Staphylococcus aureus 58 assessed as fractional inhibitory concentration index incubated for 24 hrs in presence of oxacillin by CLSI based serial dilution method
Acinetobacter [26] = assay: Antibacterial activity against Acinetobacter sp. 103 assessed as reduction in bacterial growth incubated for 24 hrs by CLSI based serial dilution method
Escherichia coli [27] = assay: Antibacterial activity against Escherichia coli ATCC 35218 assessed as reduction in bacterial growth incubated for 24 hrs by CLSI based serial dilution method
Staphylococcus aureus [28] = assay: Antibacterial activity against methicillin-resistant Staphylococcus aureus 124 assessed as reduction in bacterial growth incubated for 24 hrs in presence of oxacillin by CLSI based serial dilution method
Pseudomonas aeruginosa = assay: Antibacterial activity against Pseudomonas aeruginosa ATCC 27853 assessed as reduction in bacterial growth incubated for 24 hrs by CLSI based serial dilution method
Staphylococcus aureus [29] = assay: Antibacterial activity against Staphylococcus aureus ATCC 25923 assessed as reduction in bacterial growth incubated for 24 hrs by CLSI based serial dilution method

Row | Compound | MIC (Staphylococcus aureus [2]) [µg/mL] | MIC (Staphylococcus aureus [4]) [µg/mL] | MIC (Staphylococcus aureus [5]) [µg/mL] | MIC (Acinetobacter [6]) [µg/mL] | MIC (Klebsiella pneumoniae [7]) [µg/mL] | MIC (Staphylococcus aureus [9]) [µg/mL] | MIC (Acinetobacter [17]) [µg/mL] | MIC (Escherichia coli [19]) [µg/mL] | MIC (Enterococcus faecalis) [µg/mL] | MIC (Acinetobacter [22]) [µg/mL] | MIC (Staphylococcus aureus [24]) [µg/mL] | MIC (Acinetobacter [26]) [µg/mL] | MIC (Escherichia coli [27]) [µg/mL] | MIC (Pseudomonas aeruginosa) [µg/mL] | also measured
1 | C=C(C)[C@@H]1CC[C@]2(C(=O)O)CC[C@]3(C)[C@H](CC[C@@H]4[C@@]5(C)CCC(=O)C(C)(C)[C@@H]5[C@H](O)C[C@]43C)[C@@H]12 | 32 (≈ 68 µM) | 32 (≈ 68 µM) | 32 (≈ 68 µM) | > 1020 | > 1020 | 16 (≈ 34 µM) | > 1020 | > 1020 | 32 (≈ 68 µM) | > 1020 | 32 (≈ 68 µM) | > 1020 | > 1020 | > 1020 | fractional inhibitory concentration index (FICI) (Staphylococcus aureus [1]): 0.75; fractional inhibitory concentration index (FICI) (Staphylococcus aureus [3]): 0.49; fractional inhibitory concentration index (FICI) (Staphylococcus aureus [8]): 0.53; FIC (Staphylococcus aureus [10]): 0.25; FIC (Staphylococcus aureus [11]): 0.5; MIC (Staphylococcus aureus [12]): 8 µg/mL; FIC (Staphylococcus aureus [13]): 1; MIC (Staphylococcus aureus [14]): 8 µg/mL; FIC (Staphylococcus aureus [15]): 0.5; MIC (Klebsiella pneumoniae [16]): > 1020 µg/mL; fractional inhibitory concentration index (FICI) (Staphylococcus aureus [18]): 2; MIC (Staphylococcus aureus [20]): 16 µg/mL; MIC (Staphylococcus aureus [21]): 16 µg/mL; FIC (Staphylococcus aureus [23]): 0.5; fractional inhibitory concentration index (FICI) (Staphylococcus aureus [25]): 1; MIC (Staphylococcus aureus [28]): 32 µg/mL; MIC (Staphylococcus aureus [29]): 16 µg/mL (≈ 34 µM)
2 | C[C@@H](O)[C@H]1C(=O)N2C(C(=O)O)=C(S[C@@H]3CN[C@H](C(=O)N(C)C)C3)[C@H](C)[C@H]12 [MEROPENEM] |  |  |  | 128 (≈ 334 µM) | 8 (≈ 20.9 µM) |  | 128 (≈ 334 µM) | 0.008 (≈ 0.0209 µM) |  | 64 (≈ 167 µM) |  | 64 (≈ 167 µM) | 0.008 (≈ 0.0209 µM) | 0.12 (≈ 0.313 µM) | 
3 | Cc1onc(-c2ccccc2)c1C(=O)N[C@@H]1C(=O)N2[C@@H]1SC(C)(C)[C@@H]2C(=O)O [OXACILLIN] | 16 (≈ 39.9 µM) | 16 (≈ 39.9 µM) | 16 (≈ 39.9 µM) |  |  | 16 (≈ 39.9 µM) |  |  | 8 (≈ 19.9 µM) |  | 0.12 (≈ 0.299 µM) |  |  |  | 
